Consider 23 compounds from US9133195B2, “Quaternary ammonium salt compounds of spirocyclopiperazines, preparation methods and uses thereof” (Peking University, priority 2006, dated 2015).

Where a name gives a salt, the structure may show the parent alone.

One data set deals with Kunming mice. Briefly: Acetic acid-induced writhing test. The format is in vivo. The following applies: 31.0 umol/kg s.c., acetic acid i.p. after 30 min, writhing counted for 10 min; for inhibition in vivo at 31 µmol/kg: Mus musculus, sc. The procedure: Kunming mice, male and female in half, were randomly divided into groups with 8 mice in each group. The following groups were established: the normal saline (NS) control group, in which normal saline was administered by subcutaneous injection (s.c.); the test groups, in which 31.0 umol/kg quaternary ammonium salts compounds of piperazines of the present invention was administered by s.c. All drugs were dissolved in normal saline before use. The drug was injected at the dose of 0.1 ml/10 g. After 30 min, 0.2 ml of 0.6% acetic acid was injected intraperitoneally for each mouse. After 2˜3 min, the writhing reactions such as abdominal constriction, stretch of body and hind limbs, and hip raise occurred. Five minutes after acetic acid injection, the numbers of writhing was counted for 10 min. The percentage of inhibition was determined by using the following formula (1): Inhibition %=[(The numbers of writhing of control group−the numbers of writhing of drag injection group)/the numbers of writhing of control group]×100% (1) 2 Experimental Results
This experiment was carried out according to that of Example 36.
In general terms: An intraperitoneal irritant provokes the stretching counted in writhing tests.

The next data set can be described thus: Body temperature in mice. The format is in vivo. Particulars: 2.0 mg/kg. The procedure: (§1) All the following tests were carried out by using compound LXM-10 according to the routine methods.
For data set [1], the system named is mice. Briefly: Function of motion coordination (rota-rod). It is filed as in vivo. The following applies: 2.0 mg/kg. The procedure: as §1
The effect of muscle-relaxed effect on the analgesic effect of LXM-10 was also excluded.
(In general: Falling from the rotarod earlier than controls is read as motor impairment.)

The test system of data set [2] is mice. Briefly: Spontaneous motion in mice. The format is in vivo. Particulars: 2.0 mg/kg. The procedure:
as §1

The melting point is the temperature, or range, at which the solid turns liquid. The inhibition in vivo is the relative decrease from the control value, in per cent.

On to “8-(4-chloro-3-pyridyl)-5,8-diazaspiro[4.5]decane bromide [LXM-24]”, for which the “Inhibition(%) of writhing” value in the data set on Kunming mice is 46%.
As to `c1ccc(N2CC[N+]3(CCCC3)CC2)cc1` (as salt: bromide) [LXM-18, 8-phenyl-5,8-diazaspiro[4.5]decane bromide], the melting point lay in the range of 208 to 209 °C.
In turn, `COc1ccc(N2CC[N+]3(CCCC3)CC2)cc1` (as salt: bromide) [LXM-19, 8-(p-methoxyphenyl)-5,8-diazaspiro[4.5]decane bromide] returned a melting point of 201 to 203 °C.
On the same count and under the same terms, then `CC1CC[N+]2(CC1)CCN(CCc1ccccc1)CC2` (as salt: chloride) [LXM-6, 3-methyl-9-(β-phenylethyl)-6,9-diazaspiro[5.5]undecane chloride], with 230 °C (dec.).
The same measure, in the same setting: then `C=CCN1CC[N+]2(CC1)CC(C)OC(C)C2` (stereo not shown) (as salt: chloride) [LXM-28, 2,4-dimethyl-9-allyl-3-oxo-6,9-diazaspiro[5.5]undecane chloride], with 236 °C (dec.); and `CC1C[N+]2(CCN(C/C=C/c3ccccc3)CC2)CC(C)O1` (stereo not shown) (as salt: chloride) [LXM-30, 2,4-dimethyl-9-cinnamenyl-3-oxo-6,9-diazaspiro[5.5] undecane chloride], with 266 to 268 °C; and `CC1C[N+]2(CCN(CCc3ccccn3)CC2)CC(C)O1` (stereo not shown) (as salt: chloride) [LXM-31], with 247 °C.
Consider `CN1C(=O)CN=C(c2ccccc2)c2cc(Cl)ccc21` [Diazepam, reference compound], for which the “Rectal temperature after treatment” value came out at 35.1 ± 0.26 °C in the data set “Body temperature in mice” (0.5 h), 35.9 ± 0.35 °C in the data set “Body temperature in mice” (2.0 h) and 36.5 ± 0.31 °C in the data set “Body temperature in mice” (3.5 h). Also, the Rectal temperature in the data set “Body temperature in mice” (before treatment) came to 37.6 ± 0.17 °C. Besides, the entries for the “Time of falling down from rota-rod after treatment” value in the data set with mice [1] (0.5 h), in the data set with mice [1] (2.0 h) and with mice [1] (3.5 h) were 48.8 ± 14.0 s, 73.3 ± 14.1 s and 111.7 ± 6.70 s, respectively. Besides, the “Time of falling down from rota-rod” value in the data set with mice [1] (before treatment) was determined as 102.5 ± 6.48 s. Also, the “Numbers of movement after treatment” value is reported as 5.37 ± 1.64 with mice [2] (0.5 h), 10.8 ± 3.10 in the data set with mice [2] (2.0 h) and 18.2 ± 3.61 with mice [2] (3.5 h). In addition, in the data set on mice [2] (before treatment), the Numbers of movement is 51.5 ± 5.15.
`CC1CC[N+]2(CC1)CCN(CCc1ccccc1)CC2` [LXM-6, 3-methyl-9-(β-phenylethyl)-6,9-diazaspiro[5.5]undecane chloride] returned an inhibition in vivo at 31 µmol/kg with Kunming mice of 30%.
The same measure, in the same setting: then `CC1C[N+]2(CCN(CCc3cccc(F)c3)CC2)CC(C)O1` (stereo not drawn) [LXM-8, 2,4-dimethyl-9-β-(m-fluorophenyl)ethyl-3-oxo-6,9-diazaspiro[5.5]undecane chloride], with 55%.
The same measure, in the same setting: then `CC1C[N+]2(CCN(CCc3cccc([N+](=O)[O-])c3)CC2)CC(C)S1` (stereo not drawn) [LXM-9, 2,4-dimethyl-9-β-(m-nitrophenyl)ethyl-3-thio-6,9-diazaspiro[5.5]undecane chloride], with 62%; and `Clc1ccc(N2CC[N+]3(CCCC3)CC2)nn1` [LXM-11, 8-(4-chloro-2,3-pyridazinyl)-5,8-diazaspiro[4.5]decane chloride], with 44%.
Still for that read-out and setting: then `O=[N+]([O-])c1cccc(N2CC[N+]3(CCCC3)CC2)c1` [LXM-16, 8-(m-nitrophenyl)-5,8-diazaspiro[4.5]decane bromide], with 61%.
Regarding `c1ccc(N2CC[N+]3(CCCC3)CC2)cc1` [LXM-18, 8-phenyl-5,8-diazaspiro[4.5]decane bromide], in the data set with Kunming mice, the inhibition in vivo at 31 µmol/kg came to 20%.
Still for that read-out and setting: then `COc1ccc(N2CC[N+]3(CCCC3)CC2)cc1` [LXM-19, 8-(p-methoxyphenyl)-5,8-diazaspiro[4.5]decane bromide], with 56%; and `Oc1cccc(N2CC[N+]3(CCCC3)CC2)c1` [LXM-20, 8-(m-hydroxyphenyl)-5,8-diazaspiro[4.5]decane bromide], with 53%.
Same read-out and setting: then `Fc1cccc(N2CC[N+]3(CCCC3)CC2)c1` [LXM-21, 8-(m-fluorophenyl)-5,8-diazaspiro[4.5]decane bromide], with 47%; and `N#Cc1cccc(N2CC[N+]3(CCCC3)CC2)c1` [LXM-22, 8-(m-cyanophenyl)-5,8-diazaspiro[4.5]decane bromide], with 56%.
Same read-out and setting: then `CCOC(=O)c1cccc(N2CC[N+]3(CCCC3)CC2)c1` [LXM-23, 8-(m-ethoxycarbonylphenyl)-5,8-diazaspiro[4.5]decane bromide], with 39%; and `c1cncc(N2CC[N+]3(CCCC3)CC2)c1` [LXM-25, 8-(3-pyridyl)-5,8-diazaspiro[4.5]decane bromide], with 37%; and `C=CCN1CC[N+]2(CC1)CC(C)OC(C)C2` (stereo not shown) [LXM-28, 2,4-dimethyl-9-allyl-3-oxo-6,9-diazaspiro[5.5]undecane chloride], with 49%.
With `CC1C[N+]2(CCN(C/C=C/c3ccccc3)CC2)CC(C)O1` (stereo not shown) [LXM-30, 2,4-dimethyl-9-cinnamenyl-3-oxo-6,9-diazaspiro[5.5] undecane chloride], the inhibition in vivo at 31 µmol/kg in the data set on Kunming mice turned out to be 43%.
Same read-out and setting: then `CC1C[N+]2(CCN(CCc3ccccn3)CC2)CC(C)O1` (stereo not shown) [LXM-31], with 58%.
